Measurements taken from patent US20220054532A1, “VETERINARY COMPOSITIONS AND METHODS OF USE THEREFOR” (priority 2019, published 2022).

What was measured:
Format in all cases: in vivo
[1] = tested on: dogs suffering behavior aberrations and/or anxiety; experiment: Example 13: behavior aberrations and anxiety, C-BARQ (canine, CBD Complex); conditions: C-BARQ day 0 vs 60, SID, 0 (no improvement) to 3 (marked improvement)
Source text: (§1) This example examines the ability of embodiments of the invention versus Clomicalm® to reduce behavior aberrations and anxiety.
The first patient group is twenty dogs suffering behavior aberrations and/or anxiety, as determined by the canine behavioral assessment and research questionnaire (“C-BARQ”). […] The second patient group is twenty cats suffering behavior aberrations and/or anxiety, as determined by the feline behavioral assessment and research questionnaire (“Fe-BARQ”).
(§2) Each group is broken into five groups of four animals. The first group receives Clomicalm® as the sole active agent; the second group receives a composition comprising HMW HA as the sole active agent; the third group receives a composition comprising CBD as the sole active agent; the fourth group receives a composition comprising HMW HA and CBD Complex as the active agents; and the fifth group receives a composition comprising HMW HA, CBD Complex, valerian root, and scutillaria as the active agents.
(§3) Each composition is administered for a period of sixty (60) days, once a day (“SID”). Owners complete the species-appropriate C-BARQ or Fe-BARQ on days 0 and 60 of treatment. The results from the overall questionnaire are averaged and characterized as no improvement (score of 0), mild improvement (score of 1), moderate improvement (score of 2), or marked improvement (score of 3).

[2] = tested on: dogs suffering behavior aberrations and/or anxiety; experiment: Example 5: behavior aberrations and anxiety, C-BARQ (canine); conditions: C-BARQ day 0 vs 60, SID, 0 (no improvement) to 3 (marked improvement)
Source text: as §1
The first patient group is twenty dogs suffering behavior aberrations and/or anxiety, as determined by the canine behavioral assessment and research questionnaire (“C-BARQ”). See, e.g., P. Wiener et al., Use of questionnaire-based data to assess dog personality, 16 JOURNAL OF VETERINARY BEHAVIOR 81-85 (2016). The second patient group is twenty cats suffering behavior aberrations and/or anxiety, as determined by the feline behavioral assessment and research questionnaire (“Fe-BARQ”).
as §2, with “CBD” for “CBD Complex”, “CBD,” for “CBD Complex,”
as §3
The following canine scores are observed and the results depicted in FIG. 5a: […]

[3] = tested on: dogs suffering from joint inflammation; experiment: Example 4: joint inflammation, thermal imaging (canine); conditions: over the inflamed joint, 60 days BID
Source text: (§4) This example examines the ability of embodiments of the invention versus Cosequin® to treat joint inflammation.
(§5) The first patient group is twenty dogs suffering from joint inflammation. The second patient group is twenty cats suffering from joint inflammation. The third patient group is twenty horses suffering from joint inflammation. Each patient group is broken into five groups of four animals. The first groups receive Cosequin® as the sole active agent; the second groups receive a composition comprising HMW HA as the sole active agent; the third groups receive a composition comprising CBD as the sole active agent; the fourth groups receive a composition comprising HMW HA and CBD as the active agents; and the fifth groups receive a composition comprising HMW HA, CBD, Boswellia, and superoxide dismutase (“SOD”) as the active agents.
(§6) Each composition is administered for a period of sixty (60) days, BID. Efficacy is determined by a decrease in body temperature over the inflamed joint, as measured by thermal imaging (e.g., via Digatherm device). Thermal imaging is performed on days 0 (“Initial Score”), 15, 30, 45, and 60 (“Final Score”) of treatment.
The following canine scores are observed and the results depicted in FIG. 4a: […]

[4] = tested on: horses suffering from joint inflammation; experiment: Example 4: joint inflammation, thermal imaging (equine); conditions: over the inflamed joint, 60 days BID
Source text: as §4, §5, §6
The following equine scores are observed and the results depicted in FIG. 4c: […]

[5] = tested on: cats suffering from joint inflammation; experiment: Example 12: joint inflammation, thermal imaging (feline, CBD Complex); conditions: over the inflamed joint, 60 days BID
Source text: as §4
The first patient group is twenty dogs suffering from joint inflammation. The second patient group is twenty cats suffering from joint inflammation. The third patient group is twenty horses suffering from joint inflammation. Each patient group is broken into five groups of four animals. The first groups receive Cosequin® as the sole active agent; the second groups receive a composition comprising HMW HA as the sole active agent; the third groups receive a composition comprising CBD as the sole active agent; the fourth groups receive a composition comprising HMW HA and CBD Complex as the active agents; and the fifth groups receive a composition comprising HMW HA, CBD Complex, Boswellia, and superoxide dismutase (“SOD”) as the active agents.
as §6
The following feline scores are observed and the results depicted in FIG. 12b: […]

[6] = tested on: dogs suffering from heart failure; experiment: Example 15: heart failure in dogs (CBD Complex); conditions: heart failure scale 1 (few to no clinical signs) to 10 (severe); for Initial Score: day 0; for Final Score: day 90, BID
Source text: (§7) This example examines the ability of embodiments of the invention versus enalapril to treat heart failure.
(§8) The patient group is twenty-four dogs suffering from heart failure.
(§9) The patient group is broken into six groups of four dogs. The first group receives enalapril as the sole active agent; the second group receives a composition comprising enalapril and Lasix®; the third group receives a composition comprising HMW HA as the sole active agent; the fourth group receives a composition comprising CBD as the sole active agent; the fifth group receives a composition comprising HMW HA and CBD Complex as the active agents; and the sixth group receives a composition comprising HMW HA, CBD Complex, liposomal CoQ10, hawthorn berry, and ginko biloba as the active agents.
(§10) Each composition is administered for a period of ninety (90) days, BID. Each animal is evaluated on days 0 (“Initial Score”), 30, 60, and 90 (“Final Score”) of treatment. The results are averaged and characterized on a scale of 1 (few to no clinical signs of heart failure) to 10 (severe heart failure).

[7] = tested on: dogs suffering from heart failure; experiment: Example 7: heart failure in dogs; conditions: heart failure scale 1 (few to no clinical signs) to 10 (severe); for Initial Score: day 0; for Final Score: day 90, BID
Source text: as §7, §8
as §9, with “CBD” for “CBD Complex”, “CBD,” for “CBD Complex,”
as §10
The following canine scores are observed and the results depicted in FIG. 7: […]

Compound	Improvement Score [1]	Improvement Score [2]	Reduction in Temperature (° F.) [3]	Reduction in Temperature (° F.) [4]	Reduction in Temperature (° F.) [5]	Initial Score [6]	Final Score [6]	Initial Score [7]	Final Score [7]
C=C(C)[C@@H]1CCC(C)=C[C@H]1c1c(O)cc(CCCCC)cc1O [CBD Alone, 2-[(1R,6R)-3-methyl-6-prop-1-en-2-ylcyclohex-2-en-1-yl]-5-pentylbenzene-1,3-diol]	2	2	1.7 ° F.	1.6 ° F.	2.0 ° F.	8	4	8	4
hyaluronic acid [HMW HA Alone]	1	1	1.9 ° F.	2.1 ° F.	2.3 ° F.	8	4	8	4
